According to paper PMC3217308 (Journal of Agricultural and Food Chemistry, 2011):

Target: T1, human sweet taste receptor, hT1R2/hT1R3 (Homo sapiens, UniProt Q7RTX0+Q8TE23)
T1 sequence (Q8TE23 20-839): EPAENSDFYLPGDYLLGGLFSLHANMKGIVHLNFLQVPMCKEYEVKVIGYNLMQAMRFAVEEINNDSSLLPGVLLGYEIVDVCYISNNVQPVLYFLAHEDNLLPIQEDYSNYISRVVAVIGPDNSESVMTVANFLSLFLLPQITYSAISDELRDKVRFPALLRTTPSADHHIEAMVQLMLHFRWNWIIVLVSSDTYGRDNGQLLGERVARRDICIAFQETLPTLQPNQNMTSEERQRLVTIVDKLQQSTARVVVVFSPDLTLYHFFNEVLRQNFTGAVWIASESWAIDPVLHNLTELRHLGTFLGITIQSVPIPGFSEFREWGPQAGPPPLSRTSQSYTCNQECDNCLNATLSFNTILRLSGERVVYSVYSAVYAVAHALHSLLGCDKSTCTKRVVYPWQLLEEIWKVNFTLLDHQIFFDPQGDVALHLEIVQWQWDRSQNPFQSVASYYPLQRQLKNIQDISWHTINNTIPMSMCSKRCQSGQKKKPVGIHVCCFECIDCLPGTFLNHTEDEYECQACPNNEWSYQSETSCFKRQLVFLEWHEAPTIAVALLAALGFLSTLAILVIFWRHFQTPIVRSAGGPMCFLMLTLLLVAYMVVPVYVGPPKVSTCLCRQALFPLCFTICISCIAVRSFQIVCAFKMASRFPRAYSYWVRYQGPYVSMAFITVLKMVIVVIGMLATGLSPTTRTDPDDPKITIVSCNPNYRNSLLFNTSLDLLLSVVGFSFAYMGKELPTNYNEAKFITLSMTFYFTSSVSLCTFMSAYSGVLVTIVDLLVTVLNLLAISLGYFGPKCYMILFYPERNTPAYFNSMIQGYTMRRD
T1 sequence (Q7RTX0 21-852): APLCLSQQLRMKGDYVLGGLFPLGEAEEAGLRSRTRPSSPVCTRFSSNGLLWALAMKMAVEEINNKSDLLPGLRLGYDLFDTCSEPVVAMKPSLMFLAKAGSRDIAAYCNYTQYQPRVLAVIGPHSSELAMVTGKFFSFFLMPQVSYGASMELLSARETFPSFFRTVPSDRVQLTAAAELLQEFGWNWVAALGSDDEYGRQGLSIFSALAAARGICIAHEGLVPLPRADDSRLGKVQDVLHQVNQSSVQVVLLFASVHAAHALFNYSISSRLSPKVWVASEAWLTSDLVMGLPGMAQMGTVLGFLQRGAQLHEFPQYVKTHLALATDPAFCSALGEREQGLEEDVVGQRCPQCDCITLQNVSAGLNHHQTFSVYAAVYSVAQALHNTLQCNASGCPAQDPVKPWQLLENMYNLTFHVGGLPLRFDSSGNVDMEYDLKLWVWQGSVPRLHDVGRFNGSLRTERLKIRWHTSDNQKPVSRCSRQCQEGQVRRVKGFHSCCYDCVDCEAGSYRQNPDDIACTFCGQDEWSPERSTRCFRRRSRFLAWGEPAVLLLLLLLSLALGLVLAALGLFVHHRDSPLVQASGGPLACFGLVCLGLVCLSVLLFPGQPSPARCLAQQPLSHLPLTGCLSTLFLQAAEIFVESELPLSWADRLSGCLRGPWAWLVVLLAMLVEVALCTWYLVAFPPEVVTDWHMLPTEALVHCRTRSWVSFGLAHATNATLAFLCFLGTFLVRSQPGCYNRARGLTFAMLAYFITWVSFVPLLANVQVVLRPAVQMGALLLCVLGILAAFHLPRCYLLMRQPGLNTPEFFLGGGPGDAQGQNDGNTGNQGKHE
Experiment: Luminescence assay
Format: cell-based
Settings: aequorin assay, 10–40 nM BCECF

For “2′,7′-bis-(2-carboxyethyl)-5-(and-6)-carboxyfluorescein [BCECF]”, the nonspecific signals was “did not produce nonspecific signals”.
